Test results published in patent US9663478B2, “Benzotriazine oxides as drugs targeting Mycobacterium tuberculosis” (priority 2011, dated 2017).
≈ marks a conversion by molar mass, not a printed value. Like-named read-outs stand apart in the source and are kept apart here.

Assays:
[1] = test system: Mtb H37Rv; test: TB MIC - SRI, resazurin-based microplate assay; type: cell-based, Mycobacterium tuberculosis; settings: for MIC: Mycobacterium tuberculosis, H37RV
[2] = test system: NRP Mtb H37Rv cells; test: Low-oxygen recovery assay (LORA) MIC; type: cell-based, Mycobacterium tuberculosis; settings: for MIC: Mycobacterium tuberculosis, H37RV, read-out: LORA MIC - ITR; for LORA MIC: Tables P1, P2, non-replicating M. tuberculosis
[3] = test system: Vero cells
[4] = test system: Mtb H37Rv; test: TB MIC - ITR (UIC), Institute for Tuberculosis Research; type: cell-based, Mycobacterium tuberculosis; settings: for MIC: Mycobacterium tuberculosis, H37RV, read-out: TB MIC - ITR; for MIC / TB MIC - ITR: Tables 1-4; for TB MIC - UIC: Tables P1, P2
[5] = Tables 1-4 and text, read-out: TB MIC - SRI
[6] = Tables P1-P3, read-out: TB MIC - SRI
[7] = read-out: Activity against H37Rv, Table P4
[8] = read-out: TB MIC - SRI, Tables P1-P3

| SMILES | MIC [1, 5] [µg/mL] | MIC ([2]; NRP Mtb, Tables 1-4 and text) [µg/mL] | Vero Tox CC50 ([3]; African green monkey, 72 h) [µg/mL] | MIC [4] [µg/mL] | MIC [1, 6] [µg/mL] | VERO Tox-SRI ([3]; African green monkey, 72 h) | also measured |
| --- | --- | --- | --- | --- | --- | --- | --- |
| COCCNC(=O)c1ccc2c(c1)[n+]([O-])c(O)c(C#N)[n+]2[O-] [Cmpd 4] | > 20 | > 32 | >16 |  |  |  |  |
| C[C@@H](Nc1n[n+]([O-])c2ccccc2[n+]1[O-])C1CCCCC1 [Compound 8k, (R)-3-((1-cyclohexylethyl)amino)benzo[e][1,2,4]triazine 1,4-dioxide] | 1.2 (≈ 4.16 µM) | 0.36 (≈ 1.25 µM) | 8.9 | 0.92 (≈ 3.19 µM) |  |  |  |
| COc1cc2c(cc1C)[n+]([O-])nc(NC1CCC1)[n+]2[O-] [Compound 15gd, 3-(cyclobutylamino)-6-methoxy-7-methylbenzo[e][1,2,4]triazine 1,4-dioxide] | 2.5 (≈ 9.05 µM) | 2.9 (≈ 10.5 µM) | >50 | 5.1 (≈ 18.5 µM) |  |  |  |
| CN(CCc1ccccc1)c1n[n+]([O-])c2cc3c(cc2[n+]1[O-])CCC3 [Compound 20u, 3-(methyl(phenethyl)amino)-7,8-dihydro-6H-indeno[5,6-e][1,2,4]triazine 1,4-dioxide] |  | 0.44 (≈ 1.31 µM) | 40 | 0.24 (≈ 0.713 µM) |  |  | MIC ([1]; Table 5, read-out: MIC, H37Rv): 0.31 µg/mL (≈ 0.922 µM) |
| [O-][n+]1nc(NC2CCC2)[n+]([O-])c2ccc(F)cc21 [SRI-012276] |  |  |  |  | 0.312 (≈ 1.25 µM) | 2.5 | TB MIC - UIC [4]: 0.4 µg/mL; LORA MIC [2]: 0.88 µg/mL |
| Cc1cccc2c1[n+]([O-])c(NC1CCC1)n[n+]2[O-] [Compound 15ed, 3-(cyclobutylamino)-5-methylbenzo[e][1,2,4]triazine 1,4-dioxide] | 0.31 (≈ 1.26 µM) | 0.43 (≈ 1.75 µM) | 22 | 0.47 (≈ 1.91 µM) |  |  |  |
| [O-][n+]1nc(N[C@@H]2C[C@H]3CC[C@@H]2C3)[n+]([O-])c2ccc(Br)cc21 [Compound 15cm, 3-((1R,2R,4S)-bicyclo[2.2.1]heptan-2-ylamino)-7-bromobenzo[e][1,2,4]triazine 1,4-dioxide] | 0.31 (≈ 0.883 µM) | 0.41 (≈ 1.17 µM) | 0.80 | 0.36 (≈ 1.03 µM) |  |  |  |
| [O-][n+]1nc(NC2CCCCC2)[n+]([O-])c2ccc(F)cc21 [SRI-012275] |  |  |  |  | 0.625 (≈ 2.25 µM) | <2.5 | TB MIC - UIC [4]: 0.68 µg/mL; LORA MIC [2]: 0.47 µg/mL |
| [O-][n+]1nc(N[C@H]2[C@@H]3C[C@H]4C[C@@H](C3)C[C@@H]2C4)[n+]([O-])c2ccccc21 [Compound 8n, 3-((1R,3S,5r,7r)-adamantan-2-ylamino)benzo[e][1,2,4]triazine 1,4-dioxide] |  |  |  |  |  |  | TB MIC - ITR [4]: 1.9 µg/mL; TB MIC - SRI ([1]; Tables 1-4 and text): 2.5 µg/mL; LORA MIC - ITR ([2]; NRP Mtb, Tables 1-4 and text): 2.3 µg/mL; Vero Tox CC50 [3]: 7.3 µg/mL |
| [O-][n+]1nc(NC2CCC2)[n+]([O-])c2ccc(F)cc21 [Compound 15ad, 3-(cyclobutylamino)-7-fluorobenzo[e][1,2,4]triazine 1,4-dioxide] | 0.31 (≈ 1.24 µM) |  | 1.6 | 0.4 (≈ 1.6 µM) |  |  | MIC [2]: 0.88 µg/mL (≈ 3.52 µM) |
| [O-][n+]1nc(NC2CC2)[n+]([O-])c2ccc(F)cc21 [SRI-012274] |  |  |  |  | 0.312 (≈ 1.32 µM) | 3.5 | TB MIC - UIC [4]: 0.93 µg/mL; LORA MIC [2]: 2.8 µg/mL |
| [O-][n+]1nc(NC2CCCCC2)[n+]([O-])c2ccc(Cl)cc21 [SRI-012303] |  |  |  |  | 0.625 (≈ 2.12 µM) | 2.62 | TB MIC - UIC [4]: 0.94 µg/mL; LORA MIC [2]: 0.63 µg/mL |
| [O-][n+]1nc(N2CCCCC2)[n+]([O-])c2cc3c(cc21)CCC3 [Compound 20r, 3-(piperidin-1-yl)-7,8-dihydro-6H-indeno[5,6-e][1,2,4]triazine 1,4-dioxide] |  |  | 21 | 0.4 (≈ 1.4 µM) |  |  | MIC ([1]; Table 5, read-out: MIC, H37Rv): 0.62 µg/mL (≈ 2.17 µM); MIC [2]: 0.49 µg/mL (≈ 1.71 µM) |
| Cc1cccc2c1[n+]([O-])c(N[C@@H]1C[C@H]3CC[C@@H]1C3)n[n+]2[O-] (racemic) [SRI-012461] |  |  |  |  | 0.156 (≈ 0.545 µM) | 2.3 |  |
| [O-][n+]1nc(NC2CCCCC2)[n+]([O-])c2ccc(Cl)cc21 [Compound 15bf, 7-chloro-3-(cyclohexylamino)benzo[e][1,2,4]triazine 1,4-dioxide] | 0.62 (≈ 2.1 µM) | 0.63 (≈ 2.14 µM) | 2.6 | 0.94 (≈ 3.19 µM) |  |  |  |
| [O-][n+]1nc(NC2CCC2)[n+]([O-])c2cc3c(cc21)CCCC3 [SRI-012497] |  |  |  |  |  | 50 | MIC [1, 7]: 1.25 µg/mL (≈ 4.37 µM); MIC [1, 8]: 1.25 µg/mL (≈ 4.37 µM) |
| [O-][n+]1nc(NC2CC2)[n+]([O-])c2ccc(F)cc21 [Compound 15ab, 3-(cyclopropylamino)-7-fluorobenzo[e][1,2,4]triazine 1,4-dioxide] | 0.31 (≈ 1.31 µM) |  | 1.3 | 0.93 (≈ 3.94 µM) |  |  | MIC [2]: 3.5 µg/mL (≈ 14.8 µM) |

| SMILES | MIC [1, 5] [µg/mL] | MIC ([2]; NRP Mtb, Tables 1-4 and text) [µg/mL] | Vero Tox CC50 ([3]; African green monkey, 72 h) [µg/mL] | MIC [4] [µg/mL] | MIC [1, 6] [µg/mL] | VERO Tox-SRI ([3]; African green monkey, 72 h) | also measured |
| --- | --- | --- | --- | --- | --- | --- | --- |
| [O-][n+]1nc(N2CCOCC2)[n+]([O-])c2ccccc21 [Compound 17p, 3-morpholinobenzo[e][1,2,4]triazine 1,4-dioxide] | 2.5 to 5 (≈ 10.1 to 20.1 µM) | 19 (≈ 76.5 µM) | 5.4 | 3.7 (≈ 14.9 µM) |  |  |  |
| [O-][n+]1nc(NC2CCCC2)[n+]([O-])c2ccc(Br)cc21 [Compound 15ce, 7-bromo-3-(cyclopentylamino)benzo[e][1,2,4]triazine 1,4-dioxide] | 0.15 (≈ 0.461 µM) | 0.46 (≈ 1.41 µM) | 18 | 0.35 (≈ 1.08 µM) |  |  |  |
| [O-][n+]1nc(NC2CCC2)[n+]([O-])c2cc3c(cc21)CCC3 [Compound 15fd, Cyclobutyl-(5,8-dioxy-2,3-dihydro-1H-5,6,8-triaza-cyclopenta[b]naphthalen-7-yl)-amine] |  |  |  |  |  |  | TB MIC - ITR [4]: 0.96 µg/mL; MIC, H37Rv ([1]; Table 5): 0.62 µg/mL (≈ 2.28 µM); TB MIC - SRI ([1]; Tables 1-4 and text): 0.62 µg/mL; LORA MIC - ITR ([2]; NRP Mtb, Tables 1-4 and text): 0.44 µg/mL; Vero Tox CC50 [3]: 34 µg/mL |
| CCNc1n[n+]([O-])c2cc3c(cc2[n+]1[O-])CCCC3 [SRI-012496] |  |  |  |  |  | 21.78 | MIC [1, 7]: 1.25 µg/mL (≈ 4.8 µM); MIC [1, 8]: 1.25 µg/mL (≈ 4.8 µM) |
| COc1ccc2c(c1)[n+]([O-])nc(NC1CCC1)[n+]2[O-] [SRI-012463] |  |  |  |  | 0.625 (≈ 2.38 µM) | 9.85 |  |
| [O-][n+]1nc(N[C@@H]2C[C@H]3CC[C@@H]2C3)[n+]([O-])c2ccc(Br)cc21 [SRI-012467] |  |  |  |  | 0.312 (≈ 0.888 µM) | 0.81 |  |
| [O-][n+]1nc(NC2CC2)[n+]([O-])c2ccccc21 [Compound 8b, 3-(cyclopropylamino)benzo[e][1,2,4]triazine 1,4-dioxide] | 2.5 (≈ 11.5 µM) |  | 21 |  |  |  |  |
| [O-][n+]1nc(NC2CCC2)[n+]([O-])c2cc3c(cc21)CCC3 [SRI-012403] |  |  |  |  | 0.625 (≈ 2.3 µM) | 33.6 |  |
| [O-][n+]1nc(N[C@@H]2C[C@H]3CC[C@@H]2C3)[n+]([O-])c2cc3c(cc21)CCC3 (racemic) [SRI-012404] |  |  |  |  | 1.25 (≈ 4 µM) | 50 |  |
| Cc1cccc2c1[n+]([O-])c(NC1CCC1)n[n+]2[O-] [SRI-012460] |  |  |  |  | 0.312 (≈ 1.27 µM) | 21.8 |  |
| Cc1c(N2CCCC2)[n+]([O-])c2ccccc2[n+]1[O-] [Cmpd 6] | > 10 | > 32 | >16 |  |  |  |  |
| Cc1cccc2c1[n+]([O-])c(NC1CCCC1)n[n+]2[O-] [SRI-012473] |  |  |  |  | 0.312 (≈ 1.2 µM) | 3.7 |  |
| CN(Cc1ccccc1)c1n[n+]([O-])c2cc3c(cc2[n+]1[O-])CCC3 [Compound 20t, 3-(benzyl(methyl)amino)-7,8-dihydro-6H-indeno[5,6-e][1,2,4]triazine 1,4-dioxide] |  | 0.41 (≈ 1.27 µM) | 17 |  |  |  | MIC ([1]; Table 5, read-out: MIC, H37Rv): 0.31 µg/mL (≈ 0.962 µM) |
| CCNc1n[n+]([O-])c2cc(C)c(OC)cc2[n+]1[O-] [Compound 15ga, 3-(ethylamino)-6-methoxy-7-methylbenzo[e][1,2,4]triazine 1,4-dioxide] | 2.5 (≈ 9.99 µM) |  | >100 | 3.5 (≈ 14 µM) |  |  | MIC ([1]; Table 5, read-out: MIC, H37Rv): 1.2 µg/mL (≈ 4.8 µM) |
| [O-][n+]1nc(NC2CC3CCC2C3)[n+]([O-])c2cc3c(cc21)CCCC3 (centres unmarked) [SRI-012498] |  |  |  |  |  | 50 | MIC [1, 7]: 1.25 µg/mL (≈ 3.83 µM); MIC [1, 8]: 1.25 µg/mL (≈ 3.83 µM) |
| CCNc1n[n+]([O-])c2cc(OC)ccc2[n+]1[O-] [SRI-012285] |  |  |  |  |  | 15.8 | TB MIC - UIC [4]: 15.1 µg/mL; LORA MIC [2]: 16.2 µg/mL |
